This note sets out measurements from patent publication US20250320496A1, “MODULATION OF ABCB11 GENE TRANSCRIPTION USING ANTISENSE OLIGONUCLEOTIDES TARGETING REGULATORY RNAS” (CAMP4 Therapeutics Corporation, priority 2022, published 2025).

Strand notation (5' to 3'): a small letter for the sugar, then the base; units joined by * are phosphorothioate-linked, units joined directly phosphodiester-linked; [ ] holds rarer units or linkages, { } end groups; capitals alone tell only the bases. e = 2'-O-(2-methoxyethyl) (MOE); l = locked nucleic acid (LNA); [5mC] = 5-methylcytosine; d = 2'-deoxy (DNA)

The subject of one data set is human ABCB11 mRNA. The data set is described as follows: ASO treatment of primary human hepatocytes (PHH), ABCB11 mRNA by RT-qPCR normalized to B2M. Format: cell-based. To be noted: primary human hepatocytes, 5 μM ASO with PO-modifications, normalized to untreated hepatocytes. The protocol: Primary human hepatocytes (PHH) were thawed using Lonza Human Cryopreserved Hepatocyte Thawing Medium and plated in 96-well collagen-coated plates (5.5-6.0×10^4 cells per well). Four hours later, the media was replaced with sterile-filtered QualGro™ Hepatocyte Culture Medium (BioIVT) containing antibiotic supplement, 0.3 mg/ml Matrigel® matrix (Corning®), and ASO at the desired concentration (e.g., 1.25 μM, 2.5 μM, 5 μM, or 10 μM). After 72 hrs., cells were harvested by aspirating media, washing once with phosphate-buffered saline (PBS), and lysed with 150 μl of Buffer RLT lysis buffer (Qiagen®). Plates were frozen at-80° C. during cell lysis. After thawing, total RNA was isolated using the Qiagen RNEasy kit as instructed by manufacturer. cDNA (random-primed) was synthesized from 10 μl of RNA using the LifeTech High Capacity cDNA Reverse Transcription kit. 2 μl of cDNA was used for reverse transcription-quantitative PCR (RT-qPCR) analyses using standard Taqman” reagents from Applied Biosystems™ to measure ABCB11 and CYP7A1 gene expression. Gene expression data was normalized to the housekeeper gene, beta-2-microglobulin (B2M).
To assess the ability of ASOs targeting ABCB11 regRNAs to modulate the expression of human ABCB11, 195 ASOs targeting the human ABCB11 regRNAs were synthesized. These initial ASOs were screened in PHHs at 5 μM to determine their efficacy in increasing human ABCB11 mRNA using quantitative PCR. This initial screen identified 10 ASOs that induced increased expression of ABCB11 mRNA by more than 1.5-fold (as compared to untreated PHHs).
On the technique in general: In qPCR the cycle at which signal appears reflects the starting amount.
For “CO-11235 (antisense eG*eT*eG*eGlAeGe[5mC]*eA*eA*lA*e[5mC]*eT*eA*eGlGe[5mC]eA*e[5mC]*eT*eG)”, the “ABCB11 FC mRNA (5 μM ASO vs. untreated)” value is on record as 1.47 fold change.

For the substance “CO-11212 (antisense eG*eT*lGeGlAeGl[5mC]*eA*lA*eA*l[5mC]*eT*lA*eGlGe[5mC]lAe[5mC]*eT*eG)”, the “ABCB11 FC mRNA (5 μM ASO vs. untreated)” value was determined as 2.44 fold change.

Take “CO-11220 (antisense eG*eT*lGeG*lAeG*l[5mC]eA*lAeA*l[5mC]eT*lAeG*lGe[5mC]*lAe[5mC]*eT*eG)”: the “ABCB11 FC mRNA (5 μM ASO vs. untreated)” value amounted to 2.22 fold change. The same measure, in the same setting: the result for “CO-11233 (antisense eG*eTlG*eGeA*lGe[5mC]*eAlA*eAe[5mC]*lTeA*eGlG*e[5mC]eA*l[5mC]eT*eG)” reads 1.60 fold change; that for “CO-11221 (antisense eG*eTlG*eGlA*eGl[5mC]*eAlA*eAl[5mC]*eTlA*eGlG*e[5mC]lA*e[5mC]eT*eG)”, 2.00 fold change.

The data set is the same for the next values; noted with them: primary human hepatocytes, 5 μM ASO, normalized to untreated PHHs (UNT).
“CO-4021 (antisense eG*eT*e[5mC]*eT*eT*e[5mC]*eT*eT*eT*eA*eT*eA*eG*e[5mC]*eA*eA*eT*eG*e[5mC]*eT)”: the “ABCB11 mRNA FC (5 μM ASO vs. UNT)” value is 1.301 fold change.

As to “CO-7026 (antisense eA*e[5mC]*eA*eG*eT*eG*eA*eG*e[5mC]*eT*eT*eA*eT*e[5mC]*eT*eG*eG*eA*eA*eA)”, the “ABCB11 mRNA FC (5 μM ASO vs. UNT)” value is recorded as 1.158 fold change. “CO-4483 (antisense eT*e[5mC]*eA*e[5mC]*eA*eA*eA*eT*eA*eG*eA*eT*eT*eG*eA*eG*eG*eG*eT*e[5mC])”: the “ABCB11 mRNA FC (5 μM ASO vs. UNT)” value came to 1.041 fold change. The same measure, in the same setting: as for “CO-7033 (antisense eG*eA*eG*eA*e[5mC]*eA*eA*eA*eG*eA*eA*eT*e[5mC]*eG*e[5mC]*eT*eG*eT*eG*eG)”, the figure is 1.316 fold change; as for “CO-7059 (eT*e[5mC]*eT*lG*eG*dA*dA*lA*dA*dT*dA*lA*dT*dG*d[5mC]*l[5mC]*eT*eT*eT*e[5mC]; antisense)”, 1.023 fold change. For “CO-6672 (antisense eA*eG*eG*eA*e[5mC]*eA*e[5mC]*eA*eA*eT*eT*eT*e[5mC]*eT*eG*eT*eA*eG*eT*eT)”, the “ABCB11 mRNA FC (5 μM ASO vs. UNT)” value was 1.391 fold change.

In the case of “CO-7180: derivative ASO with additional chemical modifications based on parent ASO CO-4529 (antisense eG*eT*lG*eG*eA*lG*e[5mC]*eA*lA*eA*e[5mC]*lT*eA*eG*lG*e[5mC]*eA*l[5mC]*eT*eG)”, the “ABCB11 mRNA FC (5 μM ASO vs. UNT)” value is given as 2.04 fold change. With “CO-4510 (antisense eG*e[5mC]*e[5mC]*eA*e[5mC]*eA*e[5mC]*eG*eT*eT*eT*e[5mC]*eT*eT*eA*eT*eT*eG*e[5mC]*eG)”, the “ABCB11 mRNA FC (5 μM ASO vs. UNT)” value is 1.084 fold change. Take “CO-6969 (antisense eT*eG*eT*eG*eG*eA*eT*eG*eT*eA*eG*eA*eT*eG*eA*eA*eT*eG*eG*e[5mC])”: the “ABCB11 mRNA FC (5 μM ASO vs. UNT)” value is on record as 1.266 fold change. On the same count and under the same terms, as for “CO-7168 (antisense eT*eG*eG*e[5mC]*eG*dT*dT*dA*dT*dT*dA*dA*dT*dT*d[5mC]*eT*eA*e[5mC]*eA*eG)”, the figure is 1.301 fold change; as for “CO-4521 (antisense eG*e[5mC]*eA*eT*eT*eT*e[5mC]*eA*eG*eA*eG*e[5mC]*eA*e[5mC]*eA*eG*eA*eG*eT*eG)”, 1.092 fold change.

Consider “CO-6966 (antisense eA*eT*eG*eA*eA*eT*eG*eG*e[5mC]*eA*eA*eG*eG*eA*eG*eA*eG*eG*eA*eT)”, for which the “ABCB11 mRNA FC (5 μM ASO vs. UNT)” value was 1.177 fold change.

As to “CO-7205 (eT*eT*eG*eG*e[5mC]*dG*dT*dT*eA*dT*dT*dA*dA*eT*dT*d[5mC]*dT*eA*e[5mC]*eA*eG*eA; antisense)”, the “ABCB11 mRNA FC (5 μM ASO vs. UNT)” value turned out to be 1.278 fold change. As for “CO-7209 (eT*eT*eT*eG*eG*d[5mC]*dG*eT*dT*dA*eT*dT*dA*eA*dT*dT*e[5mC]*dT*dA*e[5mC]*eA*eG*eA*eG; antisense)”, the “ABCB11 mRNA FC (5 μM ASO vs. UNT)” value is given as 1.262 fold change. For “CO-4053 (antisense eG*eA*eG*e[5mC]*eT*eT*e[5mC]*eA*eT*e[5mC]*eT*eG*eG*eT*eG*eT*eG*eT*e[5mC]*e[5mC])”, the “ABCB11 mRNA FC (5 μM ASO vs. UNT)” value worked out at 1.218 fold change.

Turning to “CO-7190: derivative ASO with additional chemical modifications based on parent ASO CO-4535 (antisense eT*eG*lG*e[5mC]*eG*lT*eT*eA*lT*eT*eA*lA*eT*eT*l[5mC]*eT*eA*l[5mC]*eA*eG)”, the “ABCB11 mRNA FC (5 μM ASO vs. UNT)” value was found to be 1.641 fold change. Consider “CO-7069 (e[5mC]*eA*eT*lT*eT*dA*dG*lA*dG*dA*d[5mC]*lA*dA*dA*dG*lA*eA*eT*e[5mC]*eG; antisense)”, for which the “ABCB11 mRNA FC (5 μM ASO vs. UNT)” value worked out at 1.011 fold change. With “CO-7107 (eA*e[5mC]*eA*eT*eT*eT*eA*eG*eA*eG*eA*e[5mC]*eA*eA*eA*eG*eA*eA*eT*e[5mC]*eG*e[5mC]; antisense)”, the “ABCB11 mRNA FC (5 μM ASO vs. UNT)” value turned out to be 1.148 fold change.

With “CO-7038 (antisense eA*eA*e[5mC]*eT*eG*eT*eA*e[5mC]*eA*eT*eT*eT*eA*eG*eA*eG*eA*e[5mC]*eA*eA)”, the “ABCB11 mRNA FC (5 μM ASO vs. UNT)” value is listed as 1.189 fold change. As for “CO-4020 (antisense e[5mC]*eA*eT*eG*eT*eA*eT*e[5mC]*eA*eA*eT*e[5mC]*eT*e[5mC]*eT*eT*eA*eG*eA*eG)”, the “ABCB11 mRNA FC (5 μM ASO vs. UNT)” value is listed as 1.201 fold change.

In the case of “CO-7045 (antisense eT*eG*eT*eT*eT*dT*dG*d[5mC]*dT*dT*dG*dG*dT*d[5mC]*dA*eA*eG*eA*eG*eG)”, the “ABCB11 mRNA FC (5 μM ASO vs. UNT)” value was 1.112 fold change. In the case of “CO-7036 (antisense eG*eT*eA*e[5mC]*eA*eT*eT*eT*eA*eG*eA*eG*eA*e[5mC]*eA*eA*eA*eG*eA*eA)”, the “ABCB11 mRNA FC (5 μM ASO vs. UNT)” value turned out to be 1.129 fold change. Consider “CO-7114 (eG*eT*eG*eT*eT*eT*dT*dG*d[5mC]*dT*dT*dG*dG*dT*d[5mC]*dA*eA*eG*eA*eG*eG*eA; antisense)”, for which the “ABCB11 mRNA FC (5 μM ASO vs. UNT)” value stood at 1.47 fold change. On to “CO-7061 (eT*e[5mC]*eT*lG*eG*lA*eA*lA*eA*lT*eA*lA*eT*lG*e[5mC]*l[5mC]*eT*lT*eT*e[5mC]; antisense)”, for which the “ABCB11 mRNA FC (5 μM ASO vs. UNT)” value was found to be 1.261 fold change. For “CO-4042 (antisense e[5mC]*eT*e[5mC]*eT*e[5mC]*eG*eT*eT*e[5mC]*e[5mC]*eA*eA*eG*eG*eT*eG*eA*eA*eT*e[5mC])”, the “ABCB11 mRNA FC (5 μM ASO vs. UNT)” value came out at 0.605 fold change. “CO-4046 (antisense eG*eG*eG*eAeA*eA*eG*eT*eT*eT*eA*eA*eA*eGeGeT*eA*eT*eT*eT)”: the “ABCB11 mRNA FC (5 μM ASO vs. UNT)” value is recorded as 1.035 fold change. With “CO-4018 (antisense eA*eT*eG*eG*e[5mC]*e[5mC]*eG*eA*eA*eT*eA*eG*eA*eT*eT*eG*eA*eA*eT*eA)”, the “ABCB11 mRNA FC (5 μM ASO vs. UNT)” value is given as 1.124 fold change. “CO-7104 (eT*eA*eT*e[5mC]*eT*dG*dG*eA*dA*dA*eA*dT*dA*eA*dT*dG*e[5mC]*d[5mC]*dT*eT*eT*e[5mC]*eT*eA; antisense)”: the “ABCB11 mRNA FC (5 μM ASO vs. UNT)” value is 0.918 fold change. On the same count and under the same terms, the result for “CO-7090 (eA*e[5mC]*e[5mC]*e[5mC]*l[5mC]*d[5mC]*d[5mC]*dT*l[5mC]*dA*d[5mC]*d[5mC]*lT*dT*dG*eG*lT*eT*e[5mC]*e[5mC]; antisense)” reads 1.203 fold change; that for “CO-4485 (antisense eG*eT*e[5mC]*eA*eA*eG*eA*eT*e[5mC]*e[5mC]*e[5mC]*e[5mC]*eG*eA*eA*eG*eT*eT*eG*eA)”, 1.194 fold change. As to “CO-6979 (antisense eG*eT*eG*eA*eG*dG*d[5mC]*dA*dT*d[5mC]*dA*dG*dG*dT*dA*eA*eG*eT*eT*e[5mC])”, the “ABCB11 mRNA FC (5 μM ASO vs. UNT)” value is 1.201 fold change.

“CO-7063 (eT*e[5mC]*lT*eG*eG*lA*eA*eA*lA*eT*eA*lA*eT*eG*l[5mC]*e[5mC]*eT*lT*eT*e[5mC]; antisense)”: the “ABCB11 mRNA FC (5 μM ASO vs. UNT)” value is 1.291 fold change. As to “CO-6988 (antisense eT*eG*eG*lA*eT*lG*eT*lA*eG*lA*eT*lG*eA*lA*eT*lG*eG*l[5mC]*eA*eA)”, the “ABCB11 mRNA FC (5 μM ASO vs. UNT)” value stood at 1.093 fold change.

“CO-4027 (antisense eG*eT*eG*eG*eA*eG*eT*eGeT*eT*eT*e[5mC]*eT*eG*eG*eT*eT*eT*eA*eT)”: the “ABCB11 mRNA FC (5 μM ASO vs. UNT)” value stood at 1.095 fold change. The same measure, in the same setting: as for “CO-4032 (antisense eA*eG*eT*e[5mC]*e[5mC]*eA*eT*eT*eA*eT*eT*eT*e[5mC]*e[5mC]*eT*e[5mC]*eT*eG*eG*e[5mC])”, the figure is 1.311 fold change; as for “CO-7157 (antisense eG*eT*eG*eG*eA*dG*d[5mC]*dA*dA*dA*d[5mC]*dT*dA*dG*dG*e[5mC]*eA*e[5mC]*eT*eG)”, 1.195 fold change. In the case of “CO-4061 (antisense eA*eT*eT*e[5mC]*eA*eT*eT*eG*e[5mC]*eT*eG*eA*eA*eG*eG*e[5mC]*eT*eG*eG*eA)”, the “ABCB11 mRNA FC (5 μM ASO vs. UNT)” value worked out at 1.233 fold change. For the substance “CO-6968 (antisense eT*eG*eG*eA*eT*dG*dT*dA*dG*dA*dT*dG*dA*dA*dT*eG*eG*e[5mC]*eA*eA)”, the “ABCB11 mRNA FC (5 μM ASO vs. UNT)” value is given as 1.373 fold change.
